This note sets out measurements from patent publication EP0355353A2, “Cycloalkylthiazole derivatives” (F. HOFFMANN-LA ROCHE AG, priority 1988, dated 1990).

In experiment [1] the target is T1, Leukotriene D₄ Receptor (Cavia porcellus, UniProt Q2NNR5).
T1 construct: from tissue; host or cells: guinea pig lung crude membrane fraction
T1 sequence (Q2NNR5 1-340): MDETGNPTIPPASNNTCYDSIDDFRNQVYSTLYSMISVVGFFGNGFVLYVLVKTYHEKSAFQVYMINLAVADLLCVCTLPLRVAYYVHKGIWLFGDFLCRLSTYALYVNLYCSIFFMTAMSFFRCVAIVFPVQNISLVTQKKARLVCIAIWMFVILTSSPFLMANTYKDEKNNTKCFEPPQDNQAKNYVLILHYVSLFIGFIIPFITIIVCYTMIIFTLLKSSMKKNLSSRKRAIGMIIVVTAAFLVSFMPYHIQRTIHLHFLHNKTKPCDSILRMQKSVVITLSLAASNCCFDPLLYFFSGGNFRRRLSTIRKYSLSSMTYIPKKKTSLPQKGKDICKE
The experiment in a line: Leukotriene D₄ Receptor Binding Assay (Guinea Pig Lung Homogenate), displacement of ³H-LTD₄. The note with it: guinea pig lung membrane homogenate, 3.5 nM ³H-LTD₄, 20°C, 30 minutes; read-out: LTD₄ Binding IC₅₀. The procedure: Leukotriene D₄ Receptor Binding Assay (Guinea Pig Lung Homogenate) […]
a) Preparation of membrane homogenate
Male albino guinea pigs (Hartley strain, 400-500 g body weight) were sacrificed by decapitation. The lungs were removed, frozen in liquid nitrogen and stored at -70° until use. The frozen tissue (5 g) was thawed, minced into small pieces and rinsed in phosphate-buffered saline. The tissue was placed in 40 ml homogenization buffer containing 0.25 M sucrose, 10 mM Tris-HCl, (pH 7.5), and the following protease inhibitors: soybean trypsin inhibitor (5 µg/ml) bacitracin (100 µg/ml), benzamidine (10⁻³M) and phenylmethylsulfonyl fluoride ([…]). The protease inhibitors were included to inhibit proteolysis during the processes of homogenization and centrifugation. The tissue was then homogenized at 0-4°C with a Brinkman PT-20 polytron for a total of 1 minute (10 second pulses at a setting of 6). The homogenate was centrifuged (1000 x g for 10 minutes) to remove tissue clumps, unbroken cells and nuclei. The supernatant was recentrifuged at 30,000 x g for 30 minutes to yield pellets which were referred to as crude membrane fractions. This fraction was then resuspended in the incubation buffer (10 mM Pipes buffer, pH 7.5, 50 mM NaCl), homogenized in a Teflon homogenizer and recentrifuged at 30,000 x g for 30 minutes. The pellets were finally resuspended in the incubation buffer with a Teflon homogenizer at a concentration of 10 to 20 mg/ml of protein in the suspension. The concentrations of proteins were determined using the Biorad reaction kit. […]
b) Receptor-Ligand Binding Assay
Optimum assay conditions were determined with an assay mixture containing: Tyrode solution; 0.1% bovine serum albumin (BSA); 1 mM glycine; 1 mM cysteine; 3.5 nM ³H-LTD₄ and the membrane preparation (100-200 µg protein) in a final volume of 250 µl. The incubation was carried out at 20°C for 30 minutes. At 20°C, binding increased linearly with protein concentration, reached equilibrium in 20 minutes, was saturable, and reversible upon additions of unlabelled LTD₄. Separation of bound from free ³H-LTD₄ was performed by rapid filtration on GF/C glass fiber filters and washing with two 4 ml aliquots of Tyrode solutions containing 0.1% BSA. Radioactivity remaining on the filters was measured in 10 ml of Aquasol. Specific binding was defined as that displaced by 10⁻⁶M unlabelled LTD₄ and was 95% of total binding.

Experiment [2] deals with LTD₄-Induced Bronchoconstriction. The experiment is described as follows: Leukotriene-Induced Bronchoconstriction in Guinea Pigs - in vivo leukotriene D₄ (LTD) antagonist test, intravenous and oral testing. On the set-up: LTD₄-Induced Bronchoconstriction (ID₅₀) i.v. / LTD₄-Induced Bronchoconstriction (ID₅₀) p.o.: unit not given here. The note with it: for Duration 10 mg/kg p.o. 4 hr.: inhibition with LTD challenge 4 hr. after administration; for Duration 10 mg/kg p.o. 8 hr.: inhibition with LTD challenge 8 hr. after administration; for inhibition at 10 mg/kg / inhibition at 1 mg/kg: Cavia porcellus; for inhibition at 10 mg/kg: 2 h, two hours prior to LTD challenge (25 µg/kg i.v.); for Duration 10 mg/kg p.o. 4 hr. / Duration 10 mg/kg p.o. 8 hr. / inhibition at 10 mg/kg / Duration 10 mg/kg p.o. 18 hr.: 10 mg/kg p.o.; for inhibition at 1 mg/kg: iv, 1 mg/kg i.v., 1 minute before LTD challenge (25 µg/kg i.v.), change in tracheal pressure; for LTD₄-Induced Bronchoconstriction (ID₅₀) i.v.: intravenous route; for LTD₄-Induced Bronchoconstriction (ID₅₀) i.v. / LTD₄-Induced Bronchoconstriction (ID₅₀) p.o.: increasing doses, value in parentheses; for LTD₄-Induced Bronchoconstriction (ID₅₀) p.o.: oral route, two hours prior to challenge; for Duration 10 mg/kg p.o. 18 hr.: inhibition with LTD challenge 18 hr. after administration. The procedure: Leukotriene-Induced Bronchoconstriction in Guinea Pigs - In vivo leukotriene D₄ (LTD) antagonist test
Intravenous and Oral Testing
Male guinea pigs (Hartley strain Charles River) weighing 300-500 g were anesthetized with urethane (∼2 g/kg) intraperitoneally and a polyethylene cannula was inserted into the jugular vein for intravenous drug administration. Tracheal pressure (cm of H₂0) was recorded from a Statham pressure transducer (P 32 AA). Propranolol was administered 5 minutes prior to challenge with LTD. Two minutes later spontaneous breathing was arrested with succinylcholine chloride (1.2 mg/kg) administered intravenously and the animals were ventilated with a Harvard (Model #680) small animal respirator set a 40 breaths/min and 4.0 cc stroke volume. Control vehicle or test drug was administered through the cannula into the jugular vein 1 minute before the animals were challenged intravenously with a maximum constrictory dose of LTD (25 µg/kg) given intravenously. The change in tracheal pressure was averaged for control and drug-treated animals and percent inhibition was calculated. For determination of oral activity, animals were dosed with test compound or vehicle two hours prior to challenge with LTD (25 µg/kg. i.v.).
The relative potency (ID₅₀ values) of test compounds administered by the intravenous and oral route was determined by administering increasing doses of test compound. For determination of the time course of inhibition for various compounds, the time between administration of compound and challenge with LTD was varied. The time course of activity was calculated as the time when inhibition decreased to 40%.

`CCC(CC)(CC(=O)Nc1cccc(/C=C/c2nc(C3CCC3)cs2)c1)C(=O)O` [(E)-4-[[3-[2-(4-cyclobutyl-2-thiazolyl)ethenyl]phenyl]amino]-2,2-diethyl-4-oxobutanoic acid]: the IC50 in experiment [1] came out at 15 nM. In addition, in experiment [2], the “Duration 10 mg/kg p.o. 4 hr.” value turned out to be 100±0; the “Duration 10 mg/kg p.o. 8 hr.” value amounted to 98±1; the inhibition – broadly, the drop in the measured response relative to a control, in per cent – at 10 mg/kg stood at 99 ± 1%; the inhibition at 1 mg/kg is 98%. For the same compound, in experiment [2], the “LTD₄-Induced Bronchoconstriction (ID₅₀) i.v.” value came to 0.13 and the “LTD₄-Induced Bronchoconstriction (ID₅₀) p.o.” value came out at 0.12.
Regarding `O=C(O)CCC(=O)Nc1cccc(/C=C/c2nc(C3CC3)cs2)c1` [(E)-4-[[3-[2-(4-cyclopropyl-2-thiazolyl)ethenyl]phenyl]amino]-4-oxobutanoic acid], the IC50 in experiment [1] amounted to 4000 nM. The same compound had an inhibition at 1 mg/kg in experiment [2] of 15 ± 4%.
As to `CCC(CC)(CC(=O)Nc1cccc(/C=C/c2nc(C3CC3)cs2)c1)C(=O)O` [(E)-4-[[3-[2-(4-cyclopropyl-2-thiazolyl)ethenyl]phenyl]amino]-2,2-diethyl-4-oxobutanoic acid], the IC50 in experiment [1] amounted to 20 nM. Besides, in experiment [2], the “Duration 10 mg/kg p.o. 4 hr.” value is listed as 99±1, the “Duration 10 mg/kg p.o. 8 hr.” value was determined as 95±1, the “Duration 10 mg/kg p.o. 18 hr.” value was 61±6 and testing at 10 mg/kg gave an inhibition of 98 ± 1%. In addition, in experiment [2], at 1 mg/kg the inhibition was 94 ± 2%, the “LTD₄-Induced Bronchoconstriction (ID₅₀) i.v.” value is 0.18 and the “LTD₄-Induced Bronchoconstriction (ID₅₀) p.o.” value is reported as 1.1.
For the compound `CC(CC(=O)Nc1cccc(/C=C/c2nc(C3CCC3)cs2)c1)C(=O)O` (centres unmarked) [(E)-4-[[3-(2-(4-cyclobutyl-2-thiazolyl)ethenyl]phenyl]amino]-2-methyl-4-oxobutanoic acid], the IC50 in experiment [1] came to 110 nM. Moreover, the “LTD₄-Induced Bronchoconstriction (ID₅₀) i.v.” value in experiment [2] is on record as “(0.61)”.
Consider `CCC(CC)(CC(=O)Nc1cccc(/C=C/c2nc(C3CCCC3)cs2)c1)C(=O)O` [(E)-4-[[3-[2-(4-cyclopentyl-2-thiazolyl)ethenyl]phenyl]amino]-2,2-diethyl-4-oxobutanoic acid], for which, in experiment [1], the IC50 was 60 nM. For the same compound, in experiment [2], the “Duration 10 mg/kg p.o. 4 hr.” value is reported as 99+1, the “Duration 10 mg/kg p.o. 8 hr.” value is listed as 98+1, the “Duration 10 mg/kg p.o. 18 hr.” value stood at 70±7 and the inhibition at 10 mg/kg stood at 97 ± 1%. In experiment [2], the inhibition at 1 mg/kg was found to be 99 ± 1%, the “LTD₄-Induced Bronchoconstriction (ID₅₀) i.v.” value is on record as 0.08 and the “LTD₄-Induced Bronchoconstriction (ID₅₀) p.o.” value was determined as 0.34.
Take `CCC(CC)(CC(=O)Nc1cccc(/C=C/c2nc(C3CCCCC3)cs2)c1)C(=O)O` [(E)-4-[[3-[2-(4-cyclohexyl-2-thiazolyl)ethenyl]phenyl]amino]-2,2-diethyl-4-oxobutanoic acid]: the IC50 in experiment [1] is 80 nM. Also, in experiment [2], the “Duration 10 mg/kg p.o. 4 hr.” value is 69±12, the “Duration 10 mg/kg p.o. 8 hr.” value is 81±9, the “Duration 10 mg/kg p.o. 18 hr.” value is on record as 38+4 and the inhibition at 10 mg/kg was 87 ± 6%. In experiment [2], at 1 mg/kg the inhibition was 96 ± 2%, the “LTD₄-Induced Bronchoconstriction (ID₅₀) i.v.” value is 0.31 and the “LTD₄-Induced Bronchoconstriction (ID₅₀) p.o.” value is given as 0.66.
